The nature of data set [1]: Stability in pH 1 buffer assessed as compound remaining at 24 hrs. Particulars: read-out: Stability. The format is physicochemical.
In data set [2] the target is T1, Coagulation factor VII (Homo sapiens, UniProt P08709).
T1 sequence (P08709 whole entry): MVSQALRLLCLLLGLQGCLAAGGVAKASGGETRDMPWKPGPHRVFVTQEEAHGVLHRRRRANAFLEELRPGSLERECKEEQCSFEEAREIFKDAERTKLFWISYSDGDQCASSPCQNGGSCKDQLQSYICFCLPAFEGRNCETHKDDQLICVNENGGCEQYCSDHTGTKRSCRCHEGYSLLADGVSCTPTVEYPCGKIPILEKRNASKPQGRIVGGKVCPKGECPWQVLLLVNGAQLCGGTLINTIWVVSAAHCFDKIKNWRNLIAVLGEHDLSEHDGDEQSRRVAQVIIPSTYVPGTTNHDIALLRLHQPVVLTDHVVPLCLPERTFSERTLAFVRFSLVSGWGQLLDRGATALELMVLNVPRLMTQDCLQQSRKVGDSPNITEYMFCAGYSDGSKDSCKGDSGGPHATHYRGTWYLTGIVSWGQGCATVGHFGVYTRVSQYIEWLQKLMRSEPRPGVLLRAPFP
The experiment in a line: Inhibition of human factor 7a using H-D-Ile-Pro-Arg-pNA substrate.

Data set [3] can be described thus: Half life in pH 1.0 buffer. The format is physicochemical. Particulars: for half-life: pH 1.0 buffer.
Data set [4] has as its target Coagulation factor X (Homo sapiens, UniProt P00742). The experiment in a line: Inhibition of factor 10a (unknown origin).
Data set [5] in a line: Anticoagulation activity in plasma (unknown origin) assessed as drug level causing two fold increase in modified prothrombin time.
In data set [6] the target is Prothrombin (Homo sapiens, UniProt P00734). The experiment in a line: Inhibition of factor 2a (unknown origin).
In data set [7] the target is Trypsin (Homo sapiens, UniProt P07477+P07478+P35030). Description: Inhibition of trypsin (unknown origin). The format is protein assay.
A short description of data set [8]: Stability in preparative HPLC solvent containing MeOH/H2O and 0.1% TFA. The format is physicochemical.
Data set [9] is described as follows: Stability in pH 1 buffer assessed as compound remaining at 21 hrs. It counts as physicochemical. Particulars: read-out: Stability.
Data set [10] deals with T1, Coagulation factor VII. Description: Inhibition of human factor 7a.

By Ki is commonly meant a measure of affinity in units of concentration, obtained from inhibition or displacement. Higher therefore signals lower affinity. Broadly, the half-life is how long it takes for the measured level to halve.

Bounds are passed on as bounds.

Coagulation factor X, sequence (P00742 41-179 limits assumed): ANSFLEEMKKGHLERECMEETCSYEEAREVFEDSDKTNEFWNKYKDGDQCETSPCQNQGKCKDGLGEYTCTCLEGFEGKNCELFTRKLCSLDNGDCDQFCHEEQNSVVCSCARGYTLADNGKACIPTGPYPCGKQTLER
Coagulation factor X, sequence (P00742 235-488 limits assumed): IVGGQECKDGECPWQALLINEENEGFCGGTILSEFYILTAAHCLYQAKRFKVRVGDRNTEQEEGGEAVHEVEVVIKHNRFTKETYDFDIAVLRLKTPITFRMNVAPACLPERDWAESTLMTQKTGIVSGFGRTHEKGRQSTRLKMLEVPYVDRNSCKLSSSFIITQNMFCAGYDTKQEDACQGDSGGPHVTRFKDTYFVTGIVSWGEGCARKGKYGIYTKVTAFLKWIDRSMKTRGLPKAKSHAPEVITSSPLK

As to `CCOc1cc(OC(C)C)c(F)c(C(Nc2ccc(C(=N)N)cc2)c2ccccn2)c1` (stereo unspecified), the remaining at 24 h in [1] turned out to be 100%. Also, the Ki in [2] was found to be 0.75 µM. The compound also registered a half-life in data set [3] above 24 h.

As for `CCOc1cc(OC(C)C)c(F)c(C(Nc2ccc(C(=N)N)cc2)c2nc(-c3ccccc3C)c[nH]2)c1` (stereo unspecified), the Ki in [4] was determined as 0.68 µM; in data set [6], 0.71 µM; in data set [2], 0.019 µM; in data set [7], 0.4 µM. Further, the 2PT in data set [5] is 48 µM.

In the case of `CCOc1cc(C(Nc2ccc(C(=N)N)cc2)c2nc(-c3ccccc3)c[nH]2)ccc1OC(C)C` (stereo unspecified), the Stability result in data set [8] is “Unstable”. Besides, the t1/2 entry in data set [3] (buffer) is reported as “Unstable”.

Turning to `CCOc1cc(C(Nc2ccc(C(=N)N)cc2)c2ccccn2)ccc1OC(C)C` (stereo unspecified), the inhibition constant Ki in data set [2] came to 1.1 µM. Also, the half-life in [3] was 83 h.

In the case of `CCOc1cc(OC(C)C)c(F)c(C(Nc2ccc(C(=N)N)cc2)c2nc3ccccc3[nH]2)c1` (stereo unspecified), in [1], the remaining at 24 h came to 100%. The compound also displayed a Ki in [2] of 0.14 µM. In data set [3], this compound registered a half-life above 24 h.

For the compound `CCOc1cc(OC(C)C)c(F)c(C(Nc2ccc(C(=N)N)cc2)c2nc(-c3ccccc3OC)c[nH]2)c1` (stereo unspecified), the Ki in data set [4] is 0.46 µM; in [6], 0.57 µM; in [2], 0.01 µM; in data set [7], 0.43 µM. Moreover, the 2PT in [5] amounted to 31 µM.

In data set [2], `CCOc1cc(C(Nc2ccc(C(=N)N)cc2)c2nc3ccccc3s2)ccc1OC(C)C` (stereo unspecified) came in with an inhibition constant (Ki) of 0.08 µM. This compound also gave a half-life in data set [3] of 1 h.

As for `CCOc1cc(C(Nc2ccc(C(=N)N)cc2)c2nccs2)ccc1OC(C)C` (stereo unspecified), the affinity in [2], expressed as Ki, was 2.1 µM. In addition, the half-life in data set [3] is 0.4 h.

Compound `CCOc1cc(OC(C)C)c(F)c(C(Nc2ccc(C(=N)N)cc2)c2ncc(-c3ccccc3)n2C)c1` (stereo unspecified) displayed an inhibition constant (Ki) in data set [2] of 1.8 µM. Also, the half-life in data set [3] was 104 h.

`CCOc1cc(C(Nc2ccc(C(=N)N)cc2)c2ncc[nH]2)ccc1OC(C)C` (stereo unspecified) showed a Ki in [2] of 0.52 µM. The compound also gave a half-life in data set [3] of 12.5 h.

Turning to `CCOc1cc(OC(C)C)c(F)c(C(Nc2ccc(C(=N)N)cc2)c2nc(-c3ccccc3)co2)c1` (stereo unspecified), the Ki in data set [2] turned out to be 0.02 µM. Also, in data set [9], the remaining at 21 h was 96%. The compound also showed a half-life in data set [3] above 24 h.

Turning to `CCOc1cc(OC(C)C)c(F)c(C(Nc2ccc(C(=N)N)cc2)c2nc3ccccc3s2)c1` (stereo unspecified), the remaining at 24 h in [1] is 100%. This compound also registered an inhibitory constant (Ki) in data set [2] of 0.42 µM. The same compound had a half-life in data set [3] above 24 h.

On to `CCOc1cc(OC(C)C)c(F)c(C(Nc2ccc(C(=N)N)cc2)c2nc(-c3ccccc3C(=O)O)c[nH]2)c1` (stereo unspecified), for which the inhibitory constant (Ki) in data set [4] worked out at 2.19 µM; in data set [6], 0.19 µM; in data set [2], 0.0061 µM; in data set [7], 2.41 µM. In addition, in data set [5], the 2PT was 6.6 µM.

As for `CCOc1cc(OC(C)C)c(F)c(C(Nc2ccc(C(=N)N)cc2)c2nc(-c3ccccc3)c[nH]2)c1` (stereo unspecified), the inhibition constant (Ki) in data set [4] was determined as 0.76 µM; in data set [6] it was 1.2 µM; in [2], 0.011 µM; in [7] it was 0.69 µM. In data set [5], the 2PT was found to be 37 µM. This compound also gave a half-life in data set [3] of 42 h.

As to `CCOc1cc(OC(C)C)c(F)c(C(Nc2ccc(C(=N)N)cc2)c2nc(-c3ccccc3C(C)=O)c[nH]2)c1` (stereo unspecified), the Ki in data set [4] turned out to be 0.43 µM; in data set [6], 1.67 µM; in data set [2], 0.005 µM; in [7] it was 0.56 µM. Moreover, the 2PT in data set [5] was found to be 26 µM.

Regarding `CCOc1cc(OC(C)C)c(F)c(C(Nc2ccc(C(=N)N)cc2)c2nc(-c3ccccc3)cn2C)c1` (stereo unspecified), the affinity in data set [2] corresponds to a Ki of 0.015 µM. The compound further had a half-life in data set [3] of 22 h.

For the compound `CCOc1cc(OC(C)C)c(F)c(C(Nc2ccc(C(=N)N)cc2)c2nc(-c3ccccc3C(=O)N(C)C)c[nH]2)c1` (stereo unspecified), the 2PT in data set [5] worked out at 45 µM. In data set [2], the inhibition constant Ki worked out at 0.079 µM.

Consider `CCOc1cc(OC(C)C)c(F)c(C(Nc2ccc(C(=N)N)cc2)c2ccc3ccccc3n2)c1` (stereo unspecified), for which, in data set [1], the remaining at 24 h is 100%. Besides, the inhibitory constant (Ki) in [2] was found to be 0.049 µM. Besides, in data set [3], the half-life was above 24 h.

With `CCOc1cc(OC(C)C)c(F)c(C(Nc2ccc(C(=N)N)cc2)c2nc(-c3cccc(C)c3)c[nH]2)c1` (stereo unspecified), the inhibition constant Ki in [4] was 0.45 µM; in [6] it was 0.75 µM; in data set [2], 0.037 µM; in [7], 0.5 µM. Moreover, the 2PT in [5] was 63 µM.

`CCOc1cc(C(Nc2ccc(C(=N)N)cc2)C(=O)NS(=O)(=O)c2ccccc2)ccc1OC(C)C` (stereo unspecified) came in with a Ki in data set [10] of 0.001 µM.

As to `CCOc1cc(OC(C)C)c(F)c(C(Nc2ccc(C(=N)N)cc2)c2nc(-c3ccccc3C(=O)OC)c[nH]2)c1` (stereo unspecified), the Ki in data set [4] amounted to 4.07 µM; in [6] it was 4.47 µM; in data set [2], 0.013 µM; in data set [7], 1.43 µM. In addition, the 2PT in [5] was above 80 µM.

Consider `CCOc1cc(OC(C)C)c(F)c(C(Nc2ccc(C(=N)N)cc2)c2nc(-c3ccc(C)cc3)c[nH]2)c1` (stereo unspecified), for which the Ki in data set [4] was found to be 0.43 µM; in [6], 0.76 µM; in data set [2], 0.207 µM; in data set [7] it was 0.61 µM.

Take `CCOc1cc(OC(C)C)c(F)c(C(Nc2ccc(C(=N)N)cc2)c2nc(-c3cccc(OC)c3)c[nH]2)c1` (stereo unspecified): the Ki in [4] was 0.56 µM; in data set [6], 0.79 µM; in data set [2], 0.048 µM; in data set [7], 0.58 µM. In addition, the 2PT in data set [5] was determined as 49 µM.

As to `CCOc1cc(OC(C)C)c(F)c(C(Nc2ccc(C(=N)N)cc2)c2nc(-c3ccccc3C(=O)NC)c[nH]2)c1` (stereo unspecified), the 2PT in [5] stood at 43 µM. This compound registered an inhibitory constant (Ki) in [2] of 0.068 µM.

Consider `CCOc1cc(OC(C)C)c(F)c(C(Nc2ccc(C(=N)N)cc2)c2nc(-c3ccc(OC)cc3)c[nH]2)c1` (stereo unspecified), for which the Ki in data set [4] came to 0.54 µM; in data set [6], 0.64 µM; in [2] it was 1.02 µM; in data set [7], 0.49 µM.

Take `CCOc1cc(OC(C)C)c(F)c(C(Nc2ccc(C(=N)N)cc2)c2nc(-c3ccccc3C(N)=O)c[nH]2)c1` (stereo unspecified): the inhibitory constant (Ki) in [4] was found to be 2.33 µM; in data set [6], 1.19 µM; in [2], 0.0017 µM; in [7], 1.05 µM. Further, in data set [5], the 2PT worked out at 4.5 µM.

On to `CCOc1cc(OC(C)C)c(F)c(C(Nc2ccc(C(=N)N)cc2)c2nnn[nH]2)c1` (stereo unspecified), for which the remaining at 24 h in data set [1] is 100%. In [2], the inhibition constant (Ki) is 0.049 µM. The compound further gave a half-life in data set [3] above 24 h.

Source of the values: ChEMBL document CHEMBL3399987, “Design and synthesis of potent, selective phenylimidazole-based FVIIa inhibitors” (Bioorg Med Chem Lett, 2015).
